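Tested at 5 concentrations; 48 h exposure; 96-well plates; endpoints linearly interpolated, else capped at highest concentration. TGI: total growth inhibition.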
Columns and labels:
Experiment in all cases: DTP human tumour cell line panel, 48 h
786-0 renal = test system: 786-0 renal
A498 renal = test system: A498 renal
A549 NSCLC = test system: A549 NSCLC
ACHN renal = test system: ACHN renal
CAKI-1 renal = test system: CAKI-1 renal
CCRF-CEM leukemia = test system: CCRF-CEM leukemia
COLO 205 colon = test system: COLO 205 colon
DLD-1 colon = test system: DLD-1 colon
DMS 114 small cell lung = test system: DMS 114 small cell lung
DMS 273 small cell lung = test system: DMS 273 small cell lung
EKVX NSCLC = test system: EKVX NSCLC
HCC-2998 colon = test system: HCC-2998 colon
HCT-116 colon = test system: HCT-116 colon
HCT-15 colon = test system: HCT-15 colon
HL-60(TB) leukemia = test system: HL-60(TB) leukemia
HOP-18 NSCLC = test system: HOP-18 NSCLC
HOP-62 NSCLC = test system: HOP-62 NSCLC
HOP-92 NSCLC = test system: HOP-92 NSCLC
HT29 colon = test system: HT29 colon
IGROV1 ovarian = test system: IGROV1 ovarian
K-562 leukemia = test system: K-562 leukemia
KM12 colon = test system: KM12 colon
KM20L2 colon = test system: KM20L2 colon
LOX IMVI melanoma = test system: LOX IMVI melanoma
M14 melanoma = test system: M14 melanoma
M19-MEL melanoma = test system: M19-MEL melanoma
MALME-3M melanoma = test system: MALME-3M melanoma
MOLT-4 leukemia = test system: MOLT-4 leukemia
NCI-H226 lung = test system: NCI-H226 lung
NCI-H23 lung = test system: NCI-H23 lung
NCI-H460 lung = test system: NCI-H460 lung
NCI-H522 lung = test system: NCI-H522 lung
OVCAR-3 ovarian = test system: OVCAR-3 ovarian
OVCAR-4 ovarian = test system: OVCAR-4 ovarian
OVCAR-5 ovarian = test system: OVCAR-5 ovarian
OVCAR-8 ovarian = test system: OVCAR-8 ovarian
RPMI-8226 leukemia = test system: RPMI-8226 leukemia
RXF 393 renal = test system: RXF 393 renal
SF-268 CNS = test system: SF-268 CNS
SF-295 CNS = test system: SF-295 CNS
SF-539 CNS = test system: SF-539 CNS
SK-MEL-2 melanoma = test system: SK-MEL-2 melanoma
SK-MEL-28 melanoma = test system: SK-MEL-28 melanoma
SK-MEL-5 melanoma = test system: SK-MEL-5 melanoma
SK-OV-3 ovarian = test system: SK-OV-3 ovarian
SN12C renal = test system: SN12C renal
SNB-19 CNS = test system: SNB-19 CNS
SNB-75 CNS = test system: SNB-75 CNS
SNB-78 CNS = test system: SNB-78 CNS
SW-620 colon = test system: SW-620 colon
TK-10 renal = test system: TK-10 renal
U251 CNS = test system: U251 CNS
UACC-257 melanoma = test system: UACC-257 melanoma
UACC-62 melanoma = test system: UACC-62 melanoma
UO-31 renal = test system: UO-31 renal
XF 498 CNS = test system: XF 498 CNS
LXFL 529 NSCLC = test system: LXFL 529 NSCLC
RXF-631 renal = test system: RXF-631 renal

Nc1ccc(N)c2c1C(=O)c1c(N)ccc(N)c1C2=O
TGI (786-0 renal): > 100 µM
TGI (A498 renal): > 100 µM
TGI (A549 NSCLC): > 100 µM
TGI (ACHN renal): > 100 µM
TGI (CAKI-1 renal): > 100 µM
TGI (CCRF-CEM leukemia): > 68.3 µM
TGI (COLO 205 colon): > 100 µM
TGI (DLD-1 colon): > 100 µM
TGI (DMS 114 small cell lung): > 100 µM
TGI (DMS 273 small cell lung): > 100 µM
TGI (EKVX NSCLC): > 100 µM
TGI (HCC-2998 colon): > 100 µM
TGI (HCT-116 colon): > 100 µM
TGI (HCT-15 colon): > 100 µM
TGI (HL-60(TB) leukemia): > 100 µM
TGI (HOP-18 NSCLC): 64.7 µM
TGI (HOP-62 NSCLC): > 100 µM
TGI (HOP-92 NSCLC): > 92.3 µM
TGI (HT29 colon): > 100 µM
TGI (IGROV1 ovarian): > 100 µM
TGI (K-562 leukemia): > 100 µM
TGI (KM12 colon): > 100 µM
TGI (KM20L2 colon): > 100 µM
TGI (LOX IMVI melanoma): > 31.6 µM
TGI (M14 melanoma): > 100 µM
TGI (M19-MEL melanoma): > 100 µM
TGI (MALME-3M melanoma): > 100 µM
TGI (MOLT-4 leukemia): > 63.6 µM
TGI (NCI-H226 lung): 67.8 µM
TGI (NCI-H23 lung): > 100 µM
TGI (NCI-H460 lung): > 100 µM
TGI (NCI-H522 lung): > 89.3 µM
TGI (OVCAR-3 ovarian): 81.9 µM
TGI (OVCAR-4 ovarian): 97.4 µM
TGI (OVCAR-5 ovarian): > 100 µM
TGI (OVCAR-8 ovarian): > 100 µM
TGI (RPMI-8226 leukemia): > 100 µM
TGI (RXF 393 renal): > 93.5 µM
TGI (SF-268 CNS): > 100 µM
TGI (SF-295 CNS): > 100 µM
TGI (SF-539 CNS): > 88.8 µM
TGI (SK-MEL-2 melanoma): > 100 µM
TGI (SK-MEL-28 melanoma): > 100 µM
TGI (SK-MEL-5 melanoma): > 100 µM
TGI (SK-OV-3 ovarian): > 100 µM
TGI (SN12C renal): > 100 µM
TGI (SNB-19 CNS): > 100 µM
TGI (SNB-75 CNS): > 77.7 µM
TGI (SNB-78 CNS): > 100 µM
TGI (SW-620 colon): > 100 µM
TGI (TK-10 renal): > 100 µM
TGI (U251 CNS): > 100 µM
TGI (UACC-257 melanoma): > 100 µM
TGI (UACC-62 melanoma): > 100 µM
TGI (UO-31 renal): > 100 µM
TGI (XF 498 CNS): > 89.2 µM

CCC(/C(=N\Nc1c(Cl)cc(Cl)cc1Cl)c1ccccc1)n1ccnc1C (stereo unspecified)
TGI (786-0 renal): 25.6 µM
TGI (A498 renal): 29.2 µM
TGI (A549 NSCLC): 38.1 µM
TGI (ACHN renal): 19.5 µM
TGI (CAKI-1 renal): 25.8 µM
TGI (CCRF-CEM leukemia): > 100 µM
TGI (COLO 205 colon): 24.1 µM
TGI (DLD-1 colon): 17.2 µM
TGI (DMS 114 small cell lung): 22.3 µM
TGI (DMS 273 small cell lung): 19.7 µM
TGI (EKVX NSCLC): 35.9 µM
TGI (HCC-2998 colon): 15.7 µM
TGI (HCT-116 colon): 20.8 µM
TGI (HCT-15 colon): 24.4 µM
TGI (HL-60(TB) leukemia): 14.6 µM
TGI (HOP-18 NSCLC): 30.1 µM
TGI (HOP-92 NSCLC): 19.7 µM
TGI (HT29 colon): 21.4 µM
TGI (IGROV1 ovarian): 28.8 µM
TGI (K-562 leukemia): 51.6 µM
TGI (KM12 colon): 26.8 µM
TGI (KM20L2 colon): 17.5 µM
TGI (LOX IMVI melanoma): 26.8 µM
TGI (LXFL 529 NSCLC): 25.8 µM
TGI (M14 melanoma): 28.6 µM
TGI (M19-MEL melanoma): 29.7 µM
TGI (MALME-3M melanoma): 24.8 µM
TGI (MOLT-4 leukemia): 37.1 µM
TGI (NCI-H226 lung): 35 µM
TGI (NCI-H23 lung): 25.3 µM
TGI (NCI-H460 lung): 29.4 µM
TGI (NCI-H522 lung): 18.1 µM
TGI (OVCAR-3 ovarian): 18.8 µM
TGI (OVCAR-4 ovarian): 30 µM
TGI (OVCAR-5 ovarian): 21.2 µM
TGI (OVCAR-8 ovarian): 37.2 µM
TGI (RPMI-8226 leukemia): 41 µM
TGI (RXF-631 renal): 25 µM
TGI (SF-268 CNS): 47.2 µM
TGI (SF-295 CNS): 24.7 µM
TGI (SF-539 CNS): 31.1 µM
TGI (SK-MEL-2 melanoma): 28.1 µM
TGI (SK-MEL-28 melanoma): 29.7 µM
TGI (SK-MEL-5 melanoma): 21.2 µM
TGI (SK-OV-3 ovarian): 32.3 µM
TGI (SN12C renal): 26.4 µM
TGI (SNB-19 CNS): 28.5 µM
TGI (SNB-75 CNS): 29.5 µM
TGI (SNB-78 CNS): 42.2 µM
TGI (SW-620 colon): 35.7 µM
TGI (TK-10 renal): 28.2 µM
TGI (U251 CNS): 28.4 µM
TGI (UACC-257 melanoma): 28.3 µM
TGI (UACC-62 melanoma): 36.7 µM
TGI (UO-31 renal): 20.1 µM

— PubChem BioAssay (NCI)
